Assay results reported in patent US20250313574A1, “SIALIC ACID DERIVATIVES AND METHODS OF USING SAME” (EISAI R&D MANAGEMENT CO., LTD., priority 2022, published 2025).

Experiments:
[1] = biological target: Recombinant human CD33 protein (Homo sapiens (Human), UniProt P20138); experiment: CD33 competitive binding assay for HTS drug screen (fluorescent multivalent sialic acid probe)
Outline: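 Recombinant human CD33, coated overnight at 4° C from 10 μg/ml in pH 5.5 acetate, was preincubated briefly with compound. It was then exposed to a multivalent neutravidin/FITC/sialic acid analog A-375 probe (final 5 μM neutravidin, 15 μM A-375, 5 μM FITC) for 30 min at room temperature. After washing, bound FITC fluorescence was read.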

[2] = biological target: Recombinant Human Siglec-3/CD33 protein (His-CD33) (Homo sapiens (Human), UniProt P20138); experiment: Differential scanning fluorimetry (DSF) thermal shift assay; type: binding; conditions: difference in thermal melt of CD33 protein (0.5 μM) with 50 μM compound
Recombinant Human Siglec-3/CD33 protein (His-CD33), sequence (P20138 18-259): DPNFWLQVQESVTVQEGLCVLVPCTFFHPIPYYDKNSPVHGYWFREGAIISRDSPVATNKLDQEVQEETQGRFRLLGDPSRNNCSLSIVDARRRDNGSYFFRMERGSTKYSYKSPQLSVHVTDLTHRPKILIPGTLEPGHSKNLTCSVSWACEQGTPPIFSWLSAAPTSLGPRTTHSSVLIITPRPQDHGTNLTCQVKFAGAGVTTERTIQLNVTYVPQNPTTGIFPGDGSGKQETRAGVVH

Recombinant human CD33 protein, sequence (P20138 18-259): as above

Structure (SMILES)	EC50 [1] [µM]	DSF (dTmD) [2] [°C]
CC(=O)N[C@H]1[C@H]([C@H](O)[C@H](O)CNC(=O)c2cc(C)c(O)c(C)c2)O[C@@](C/C=C/c2cccc(CNC(=O)C3CCC(Nc4ncccn4)CC3)c2)(C(=O)O)C[C@@H]1O (stereo partly shown) [A-253]	0.195	9.6
CC(=O)N[C@H]1[C@H]([C@H](O)[C@H](O)CNC(=O)c2cc(C)c(O)c(C)c2)O[C@@](C/C=C/c2cccc(CNC(=O)c3ccc4[nH]c5c(c4c3)CCC(=O)N5C)c2)(C(=O)O)C[C@@H]1O [A-254]	0.193	9.2
CC(=O)N[C@H]1[C@H]([C@H](O)[C@H](O)CNC(=O)c2cc(C)c(O)c(C)c2)O[C@@](C/C=C/c2cccc(CNC(=O)C3CCC(Nc4ncccn4)C3)c2)(C(=O)O)C[C@@H]1O (stereo partly shown) [A-255]	4.46	4.2
CC(=O)N[C@H]1[C@H]([C@H](O)[C@H](O)CNC(=O)c2cc(C)c(O)c(C)c2)O[C@@](C/C=C/c2cccc(CNC(=O)C3CCC[C@H](Nc4ncccn4)C3)c2)(C(=O)O)C[C@@H]1O (stereo partly shown) [A-256]	2.17	5.1
CC(=O)N[C@H]1[C@H]([C@H](O)[C@H](O)CNC(=O)c2cc(C)c(O)c(C)c2)O[C@@](C/C=C/c2cccc(CNC(=O)c3ccc(NC(C)(C)C)cc3)c2)(C(=O)O)C[C@@H]1O [A-257]	1.6	5.9
CC(=O)N[C@H]1[C@H]([C@H](O)[C@H](O)CNC(=O)c2cc(C)c(O)c(C)c2)O[C@@](C/C=C/c2cccc(CNC(=O)C3CCC(Nc4ccc(C(N)=O)cn4)CC3)c2)(C(=O)O)C[C@@H]1O (stereo partly shown) [A-258]	9.37	0.8
CC(=O)N[C@H]1[C@H]([C@H](O)[C@H](O)CNC(=O)c2cc(C)c(O)c(C)c2)O[C@@](C/C=C/c2cccc(CNC(=O)C3CCCC(Nc4ccc(C)cn4)C3)c2)(C(=O)O)C[C@@H]1O (stereo partly shown) [A-259]	5.81	3.1
Cc1cc(C(=O)NC[C@@H](O)[C@@H](O)[C@@H]2O[C@@](C/C=C/c3cccc(CNC(=O)C4CCCOC4)c3)(C(=O)O)C[C@H](O)[C@H]2NC(=O)Cn2cc(C3CCCCC3)nn2)cc(C)c1O (stereo partly shown) [A-260]	7.94	4.2
Cc1cc(C(=O)NC[C@@H](O)[C@@H](O)[C@@H]2O[C@@](C/C=C/c3cccc(CNC(=O)C4CCOCC4)c3)(C(=O)O)C[C@H](O)[C@H]2NC(=O)Cn2cc(C3CCCCC3)nn2)cc(C)c1O [A-261]	1.44	4.4
Cc1cc(C(=O)NC[C@@H](O)[C@@H](O)[C@@H]2O[C@@](C/C=C/c3cccc(CNC(=O)c4cccc(Cl)c4)c3)(C(=O)O)C[C@H](O)[C@H]2NC(=O)Cn2cc(C3CCCCC3)nn2)cc(C)c1O [A-262]	6.03	1.9
Cc1cc(C(=O)NC[C@@H](O)[C@@H](O)[C@@H]2O[C@@](C/C=C/c3cccc(CNC(=O)c4ccc(Cl)cc4)c3)(C(=O)O)C[C@H](O)[C@H]2NC(=O)Cn2cc(C3CCCCC3)nn2)cc(C)c1O [A-263]	4	3.5
Cc1cc(C(=O)NC[C@@H](O)[C@@H](O)[C@@H]2O[C@@](C/C=C/c3cccc(CNC(=O)C4CCCC4)c3)(C(=O)O)C[C@H](O)[C@H]2NC(=O)Cn2cc(C3CCCCC3)nn2)cc(C)c1O [A-264]	6.33	5.5
COCCC(=O)NCc1cccc(/C=C/C[C@]2(C(=O)O)C[C@H](O)[C@@H](NC(=O)Cn3cc(C4CCCCC4)nn3)[C@H]([C@H](O)[C@H](O)CNC(=O)c3cc(C)c(O)c(C)c3)O2)c1 [A-265]	1.37	4.1
CC(=O)N1CCC(C(=O)NCc2cccc(/C=C/C[C@]3(C(=O)O)C[C@H](O)[C@@H](NC(=O)Cn4cc(C5CCCCC5)nn4)[C@H]([C@H](O)[C@H](O)CNC(=O)c4cc(C)c(O)c(C)c4)O3)c2)CC1 [A-266]	1.38	6.2
Cc1cc(C(=O)NC[C@@H](O)[C@@H](O)[C@@H]2O[C@@](C/C=C/c3cccc(CNC(=O)C4CCCO4)c3)(C(=O)O)C[C@H](O)[C@H]2NC(=O)Cn2cc(C3CCCCC3)nn2)cc(C)c1O (stereo partly shown) [A-267]	9.17	3.8
Cc1cc(C(=O)NC[C@@H](O)[C@@H](O)[C@@H]2O[C@@](C/C=C/c3cccc(CNC(=O)C4CCCOC4)c3)(C(=O)O)C[C@H](O)[C@H]2NC(=O)Cn2cc(C3CCCCC3)nn2)cc(C)c1O (stereo partly shown) [A-268]	1.32	6.2
Cc1cc(C(=O)NC[C@@H](O)[C@@H](O)[C@@H]2O[C@@](C/C=C/c3cccc(CNC(=O)c4ccccc4C(F)(F)F)c3)(C(=O)O)C[C@H](O)[C@H]2NC(=O)Cn2cc(C3CCCCC3)nn2)cc(C)c1O [A-269]	3.46	6.5
Cc1cc(C(=O)NC[C@@H](O)[C@@H](O)[C@@H]2O[C@@](C/C=C/c3cccc(CNC(=O)c4cnccn4)c3)(C(=O)O)C[C@H](O)[C@H]2NC(=O)Cn2cc(C3CCCCC3)nn2)cc(C)c1O [A-270]	2.8	6.0
Cc1cc(C(=O)NC[C@@H](O)[C@@H](O)[C@@H]2O[C@@](C/C=C/c3cccc(CNC(=O)c4ccon4)c3)(C(=O)O)C[C@H](O)[C@H]2NC(=O)Cn2cc(C3CCCCC3)nn2)cc(C)c1O [A-271]	3.99	5.1
Cc1cc(C(=O)NC[C@@H](O)[C@@H](O)[C@@H]2O[C@@](C/C=C/c3cccc(CNC(=O)C4C5OCCC[C@H]54)c3)(C(=O)O)C[C@H](O)[C@H]2NC(=O)Cn2cc(C3CCCCC3)nn2)cc(C)c1O (stereo partly shown) [A-272]	9.64	4.9
Cc1cc(C(=O)NC[C@@H](O)[C@@H](O)[C@@H]2O[C@@](C/C=C/c3cccc(CNC(=O)c4ccn(C)c(=O)c4)c3)(C(=O)O)C[C@H](O)[C@H]2NC(=O)Cn2cc(C3CCCCC3)nn2)cc(C)c1O [A-273]	9.94	5.4
Cc1cc(C(=O)NC[C@@H](O)[C@@H](O)[C@@H]2O[C@@](C/C=C/c3cccc(CNC(=O)CC4CCOCC4)c3)(C(=O)O)C[C@H](O)[C@H]2NC(=O)Cn2cc(C3CCCCC3)nn2)cc(C)c1O [A-274]	4.7	5.7

Other lines, results leading:

EC50 [1] [µM]	DSF (dTmD) [2] [°C]	Structure (SMILES)
8.63	7.0	Cc1cc(C(=O)NC[C@@H](O)[C@@H](O)[C@@H]2O[C@@](C/C=C/c3cccc(CNC(=O)c4ccn(-c5ccccn5)n4)c3)(C(=O)O)C[C@H](O)[C@H]2NC(=O)Cn2cc(C3CCCCC3)nn2)cc(C)c1O [A-275]
2.92	6.2	Cc1cc(C(=O)NC[C@@H](O)[C@@H](O)[C@@H]2O[C@@](C/C=C/c3cccc(CNC(=O)c4scnc4C)c3)(C(=O)O)C[C@H](O)[C@H]2NC(=O)Cn2cc(C3CCCCC3)nn2)cc(C)c1O [A-276]
10.2	4.3	Cc1cc(C(=O)NC[C@@H](O)[C@@H](O)[C@@H]2O[C@@](C/C=C/c3cccc(CNC(=O)c4cn[nH]c4)c3)(C(=O)O)C[C@H](O)[C@H]2NC(=O)Cn2cc(C3CCCCC3)nn2)cc(C)c1O [A-277]
1.74	8.8	Cc1cc(C(=O)NC[C@@H](O)[C@@H](O)[C@@H]2O[C@@](C/C=C/c3cccc(CNC(=O)c4ccc5[nH]ccc5c4)c3)(C(=O)O)C[C@H](O)[C@H]2NC(=O)Cn2cc(C3CCCCC3)nn2)cc(C)c1O [A-278]
10.4	4.5	COc1cc(C(=O)NCc2cccc(/C=C/C[C@]3(C(=O)O)C[C@H](O)[C@@H](NC(=O)Cn4cc(C5CCCCC5)nn4)[C@H]([C@H](O)[C@H](O)CNC(=O)c4cc(C)c(O)c(C)c4)O3)c2)ccc1O [A-279]
4.9	3.8	Cc1cc(C(=O)NC[C@@H](O)[C@@H](O)[C@@H]2O[C@@](C/C=C/c3cccc(CNC(=O)c4ccc5[nH]cnc5c4)c3)(C(=O)O)C[C@H](O)[C@H]2NC(=O)Cn2cc(C3CCCCC3)nn2)cc(C)c1O [A-280]
1.52	6.9	Cc1cc(C(=O)NC[C@@H](O)[C@@H](O)[C@@H]2O[C@@](C/C=C/c3cccc(CNC(=O)C4CCC(NS(C)(=O)=O)CC4)c3)(C(=O)O)C[C@H](O)[C@H]2NC(=O)Cn2cc(C3CCCCC3)nn2)cc(C)c1O (stereo partly shown) [A-281]
1.68	6.2	Cc1cc(C(=O)NC[C@@H](O)[C@@H](O)[C@@H]2O[C@@](C/C=C/c3cccc(CNC(=O)C4CCC[C@H](NS(C)(=O)=O)C4)c3)(C(=O)O)C[C@H](O)[C@H]2NC(=O)Cn2cc(C3CCCCC3)nn2)cc(C)c1O (stereo partly shown) [A-282]
102	2.1	Cc1cc(C(=O)NC[C@@H](O)[C@@H](O)[C@@H]2O[C@@](C/C=C/c3ccccc3)(C(=O)O)C[C@H](O)[C@H]2NC(=O)Cn2cc(C3CCCCC3)nn2)cc(C)c1O [A-283]
1.66	6.8	Cc1cc(C(=O)NC[C@@H](O)[C@@H](O)[C@@H]2O[C@@](C/C=C/c3ccc4c(c3)C(NC(=O)C3CCCOC3)CC4)(C(=O)O)C[C@H](O)[C@H]2NC(=O)Cn2cc(C3CCCCC3)nn2)cc(C)c1O (stereo partly shown) [A-284]
9.98	9.0	Cc1cc(C(=O)NC[C@@H](O)[C@@H](O)[C@@H]2O[C@@](C/C=C/c3cccc(CNC(=O)OC(C)(C)C)c3)(C(=O)O)C[C@H](O)[C@H]2NC(=O)Cn2cc(C3CCCCC3)nn2)cc(C)c1O [A-285]
2.84	2.2	Cc1ccc(CNC(=O)C2CCCOC2)cc1/C=C/C[C@]1(C(=O)O)C[C@H](O)[C@@H](NC(=O)Cn2cc(C3CCCCC3)nn2)[C@H]([C@H](O)[C@H](O)CNC(=O)c2cc(C)c(O)c(C)c2)O1 (stereo partly shown) [A-286]
1.16	6.0	Cc1ccc(CN(C)C(=O)C2CCCOC2)cc1/C=C/C[C@]1(C(=O)O)C[C@H](O)[C@@H](NC(=O)Cn2cc(C3CCCCC3)nn2)[C@H]([C@H](O)[C@H](O)CNC(=O)c2cc(C)c(O)c(C)c2)O1 (stereo partly shown) [A-287]
